Assay results: ChEMBL document CHEMBL3102719, “Ligands of the neuropeptide Y Y2 receptor” (Bioorg Med Chem Lett, 2014)
Non-standard residues stand in square brackets, D forms with d. Residues, ends and D or L forms follow the SMILES beside them. *: point of attachment. Palmitoyl = CCCCCCCCCCCCCCCC(=O)*; Ahx = NCCCCCC(=O)O

Columns and labels:
Mus musculus = test: Anticonvulsant activity in ip dosed mouse assessed as protection against 6 Hz psychomotor seizure; type: functional
[1] = target: T1, Neuropeptide Y receptor type 2 (Homo sapiens, UniProt P49146); test: Displacement of [125I]-PYY from NPYY2 receptor (unknown origin)
T1 sequence (P49146 whole entry): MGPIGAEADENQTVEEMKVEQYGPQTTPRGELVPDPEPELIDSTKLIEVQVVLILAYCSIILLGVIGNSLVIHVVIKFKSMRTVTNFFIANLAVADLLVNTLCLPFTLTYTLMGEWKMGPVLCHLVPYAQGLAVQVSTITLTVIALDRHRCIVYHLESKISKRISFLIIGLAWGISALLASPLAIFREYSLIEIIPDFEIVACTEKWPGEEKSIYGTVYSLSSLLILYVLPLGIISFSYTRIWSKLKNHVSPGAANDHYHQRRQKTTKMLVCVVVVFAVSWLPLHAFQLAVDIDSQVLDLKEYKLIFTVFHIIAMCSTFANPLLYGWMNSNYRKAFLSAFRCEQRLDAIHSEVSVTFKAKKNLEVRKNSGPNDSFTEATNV

[2] = target: T1, Neuropeptide Y receptor type 2; test: Displacement of [125I]-PYY from human NPYY2 receptor
[3] = target: T1, Neuropeptide Y receptor type 2; test: Binding affinity to NPYY2 receptor (unknown origin)
[4] = target: T2, Neuropeptide Y receptor type 2 (Homo sapiens) (UniProt P49146); test: Antagonist activity at NPYY2 receptor (unknown origin)
T2 sequence (whole entry): T1 sequence (P49146 whole entry)

[5] = target: T3, Neuropeptide Y receptor type 5 (Homo sapiens, UniProt Q15761); test: Binding affinity to NPYY5 receptor (unknown origin)
T3 sequence (Q15761 whole entry): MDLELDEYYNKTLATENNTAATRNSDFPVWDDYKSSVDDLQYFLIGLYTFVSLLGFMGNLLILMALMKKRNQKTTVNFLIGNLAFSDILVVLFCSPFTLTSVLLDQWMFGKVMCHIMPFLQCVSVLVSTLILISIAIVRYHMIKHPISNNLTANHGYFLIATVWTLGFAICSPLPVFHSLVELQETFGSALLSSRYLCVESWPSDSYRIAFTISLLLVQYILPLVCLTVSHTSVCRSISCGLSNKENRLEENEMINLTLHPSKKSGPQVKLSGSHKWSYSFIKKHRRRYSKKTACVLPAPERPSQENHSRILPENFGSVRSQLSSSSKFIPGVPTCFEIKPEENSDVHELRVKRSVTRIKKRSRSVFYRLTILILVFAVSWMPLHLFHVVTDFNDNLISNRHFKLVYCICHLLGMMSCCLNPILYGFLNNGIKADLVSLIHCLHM

[6] = target: T4, Alpha-1A adrenergic receptor (Homo sapiens, UniProt P35348); test: Binding affinity to adrenergic alpha1A receptor (unknown origin)
T4 sequence (P35348 whole entry): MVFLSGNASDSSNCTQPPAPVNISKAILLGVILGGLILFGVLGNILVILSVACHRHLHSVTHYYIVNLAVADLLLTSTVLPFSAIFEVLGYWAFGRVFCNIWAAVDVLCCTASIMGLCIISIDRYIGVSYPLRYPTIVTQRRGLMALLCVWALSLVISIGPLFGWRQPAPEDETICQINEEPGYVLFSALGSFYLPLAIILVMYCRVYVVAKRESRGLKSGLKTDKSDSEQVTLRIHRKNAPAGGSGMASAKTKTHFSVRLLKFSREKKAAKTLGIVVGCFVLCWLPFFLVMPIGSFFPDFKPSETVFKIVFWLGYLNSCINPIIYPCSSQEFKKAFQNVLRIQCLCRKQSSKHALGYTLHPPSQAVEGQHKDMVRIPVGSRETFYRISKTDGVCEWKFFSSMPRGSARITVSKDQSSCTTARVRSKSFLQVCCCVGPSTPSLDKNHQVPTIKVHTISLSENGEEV

[7] = target: Kappa-type opioid receptor (Homo sapiens, UniProt P41145); test: Binding affinity to kappa opioid receptor (unknown origin)
Kappa-type opioid receptor, sequence (P41145 whole entry): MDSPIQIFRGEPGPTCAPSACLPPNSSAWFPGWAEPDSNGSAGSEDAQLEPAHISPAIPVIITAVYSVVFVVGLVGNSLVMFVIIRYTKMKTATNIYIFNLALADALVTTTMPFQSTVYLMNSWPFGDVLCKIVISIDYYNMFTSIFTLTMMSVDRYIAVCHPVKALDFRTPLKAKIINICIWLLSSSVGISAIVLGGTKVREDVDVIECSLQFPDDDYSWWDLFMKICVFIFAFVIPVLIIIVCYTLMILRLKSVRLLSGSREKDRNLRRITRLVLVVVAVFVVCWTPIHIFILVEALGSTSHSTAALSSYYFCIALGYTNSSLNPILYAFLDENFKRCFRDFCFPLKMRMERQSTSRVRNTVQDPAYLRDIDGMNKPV

Mu-type opioid receptor = Mu-type opioid receptor (Homo sapiens, UniProt P35372); test: Binding affinity to mu opioid receptor (unknown origin)
Mu-type opioid receptor, sequence (P35372 whole entry): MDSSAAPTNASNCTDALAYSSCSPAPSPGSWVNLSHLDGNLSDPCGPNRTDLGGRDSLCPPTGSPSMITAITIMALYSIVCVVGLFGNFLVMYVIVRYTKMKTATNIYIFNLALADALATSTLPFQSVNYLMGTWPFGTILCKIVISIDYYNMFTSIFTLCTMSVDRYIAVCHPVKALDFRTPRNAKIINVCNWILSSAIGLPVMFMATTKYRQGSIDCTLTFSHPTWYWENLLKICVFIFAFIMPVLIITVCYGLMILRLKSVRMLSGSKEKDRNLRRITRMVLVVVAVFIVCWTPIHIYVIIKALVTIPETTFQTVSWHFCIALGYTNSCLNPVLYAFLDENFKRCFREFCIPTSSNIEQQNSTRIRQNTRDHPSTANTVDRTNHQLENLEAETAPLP

[8] = target: T1, Neuropeptide Y receptor type 2; test: Binding affinity to NPYY2 receptor (unknown origin) preincubated for 20 mins
[9] = Bioavailability in rat at 10 mg/kg, sc; type: ADME, organism-based; conditions: in vivo
Homo sapiens [10] = species on record: Homo sapiens; test: Selectivity ratio of NPYY1 receptor (unknown origin) to NPYY2 receptor (unknown origin)
[11] = Cmax in rat at 10 mg/kg, sc; type: ADME, organism-based; parameters: dose 10 mg/kg, route subcutaneous; conditions: in vivo
Homo sapiens [12] = species on record: Homo sapiens; test: Selectivity ratio of NPYY4 receptor (unknown origin) to NPYY2 receptor (unknown origin)
[13] = Half life in rat at 10 mg/kg, sc; type: ADME, organism-based; parameters: dose 10 mg/kg, route subcutaneous; conditions: in vivo
Homo sapiens [14] = species on record: Homo sapiens; test: Selectivity ratio of NPYY5 receptor (unknown origin) to NPYY2 receptor (unknown origin)
[15] = Oral bioavailability in rat at 10 mg/kg; type: ADME, organism-based; conditions: in vivo

CCCCCCCCCCCCCCCC(=O)NCCCC[C@H](NC(=O)[C@H](CCCCN)NC(=O)[C@H](CCCCN)NC(=O)[C@H](Cc1ccc(O)cc1)NC(C)=O)C(=O)NCCCCCC(=O)N[C@@H](C)C(=O)N[C@@H](CCCNC(=N)N)C(=O)N[C@@H](Cc1cnc[nH]1)C(=O)N[C@@H](Cc1ccc(O)cc1)C(=O)N[C@H](C(=O)N[C@@H](CC(N)=O)C(=O)N[C@@H](CC(C)C)C(=O)N[C@H](C(=O)N[C@H](C(=O)N[C@@H](CCCNC(=N)N)C(=O)N[C@@H](CCC(N)=O)C(=O)N[C@@H](CCCNC(=N)N)C(=O)N[C@@H](Cc1ccc(O)cc1)C(N)=O)[C@@H](C)O)[C@@H](C)CC)[C@@H](C)CC (Ac-YKKK(Palmitoyl)[Ahx]ARHYINLITRQRY-NH2)
ED50 (Mus musculus): 1.1 mg/kg

CN(C)CCCN(C(=O)[C@H]1C[C@@H]1c1ccccc1)c1ccccc1SCc1ccccc1 (relative stereo)
IC50 [1]: 3700 nM

CCC(CC)C(=O)Nc1ccc(N2CCN(C(c3ccccc3)c3nc(-c4ccccc4)no3)CC2)c(F)c1 (stereo not given)
IC50 [2]: 720 nM

CN(C)CCCN(C(=O)c1cc2ccccc2s1)c1ccccc1Cc1ccccc1
IC50 [1]: 450 nM

CCN(CC)C(=O)C(c1ccccc1)N1CCN(c2ccc(NC(=O)c3c(C)cnn3C(C)(C)C)cc2F)CC1 (stereo not given)
IC50 [2]: 300 nM

CC(=O)N1CCc2ccc(N(C/C=C\c3ccccc3)C3CCN(Cc4ccccc4)CC3)cc21
IC50 [2]: 22000 nM

CCCCCCCCCCCCCCCC(=O)NCCCC[C@H](NC(=O)[C@H](CCCCN)NC(=O)[C@H](CCCCN)NC(=O)[C@H](Cc1ccc(O)cc1)NC(C)=O)C(=O)NCCCCCC(=O)N[C@@H](C)C(=O)N[C@@H](CCCN=C(N)N)C(=O)N[C@@H](Cc1cnc[nH]1)C(=O)N[C@@H](Cc1ccc(O)cc1)C(=O)N[C@H](C(=O)N[C@@H](CC(N)=O)C(=O)N[C@@H](CC(C)C)C(=O)N[C@H](C(=O)N[C@H](C(=O)N[C@@H](CCCN=C(N)N)C(=O)N[C@@H](CCC(N)=O)C(=O)N[C@@H](CCCN=C(N)N)C(=O)N[C@@H](Cc1ccc(O)cc1)C(N)=O)[C@@H](C)O)[C@@H](C)CC)[C@@H](C)CC (Ac-YKKK(Palmitoyl)[Ahx]ARHYINLITRQRY-NH2)
Ki [3]: 26.1 nM

CCC(CC)C(=O)Nc1ccc(N2CCN(C(c3ccccc3)c3nnc(C(C)C)o3)CC2)c(F)c1 (stereo not given)
IC50 [2]: 290 nM

CC(=O)N1CCc2ccc(N(CC#Cc3ccccc3)C3CCN(Cc4ccccc4)CC3)cc21
IC50 [2]: 9200 nM

CCC(CC)C(=O)Nc1ccc(N2CCN(C(C(=O)N(CC)CC)c3ccc(Cl)cc3)CC2)c(F)c1 (stereo not given)
IC50 [2]: 100 nM

CCC(CC)C(=O)Nc1ccc(N2CCN(C(c3cccc(F)c3)c3ncco3)CC2)c(C#N)c1 (stereo not given)
pKb [4]: 7.9

CCN(CC)C(=O)C(c1ccccc1)N1CCN(c2ccc(-c3cc(=O)n(C(C)C)[nH]3)cc2F)CC1 (stereo not given)
IC50 [2]: 340 nM

CCC(CC)C(=O)Nc1ccc(N2CCN(C(c3ccccc3)c3ncno3)CC2)c(F)c1 (stereo not given)
IC50 [2]: 240 nM

CCC(CC)C(=O)Nc1ccc(N2CCN(C(c3ccccc3)c3cc(C)no3)CC2)c(F)c1 (stereo not given)
pKb [4]: 7.5 | IC50 [2]: 38 nM

Ac-LRHYLNLLTRQRY-NH2
Ki [5]: > 1000 nM

N=C(N)NCCCC(NC(=O)CC1(CC(=O)N2CCN(C3c4ccccc4NC(=O)c4ccccc43)CC2)CCCC1)C(=O)NCCn1c(=O)n(-c2ccccc2)n(-c2ccccc2)c1=O (single isomer, unassigned)
Ki [6]: 360 nM | Ki [7]: 948 nM | Ki (Mu-type opioid receptor): 323 nM

CCC(CC)C(=O)Nc1ccc(N2CCN(C(C(=O)N(CC)CC)c3ccc(O)cc3)CC2)c(F)c1 (stereo not given)
IC50 [2]: 100 nM

CCC(CC)C(=O)Nc1ccc(N2CCN(C(c3ccccc3)c3nc(C)no3)CC2)c(F)c1 (stereo not given)
pKb [4]: 7.4

CCN(CC)C(=O)C(c1ccccc1)C1CCN(c2ccc(NC(=O)C3CCOC3)cc2F)CC1 (stereo not given)
IC50 [2]: 25 nM

CCC(=O)NCCNC(=O)CCCC(=O)NC(=N)NCCC[C@H](NC(=O)CC1(CC(=O)N2CCN(C3c4ccccc4NC(=O)c4ccccc43)CC2)CCCC1)C(=O)NCCn1c(=O)n(-c2ccccc2)n(-c2ccccc2)c1=O (stereo not given in full)
Ki [8]: 9.9 nM

CCC(CC)C(=O)Nc1ccc(N2CCN(C(c3ccccc3)C3CCOC3)CC2)c(F)c1 (stereo not given)
pKb [4]: 7.2 | IC50 [2]: 34 nM

CCc1nc(C(c2ccccc2)N2CCN(c3ccc(NC(=O)C(CC)CC)cc3F)CC2)no1 (stereo not given)
IC50 [2]: 150 nM

CCC(CC)C(=O)Nc1ccc(N2CCN(C(c3ccccc3)c3nc(C(C)C)no3)CC2)c(F)c1 (stereo not given)
IC50 [2]: 170 nM

CCc1noc(C(c2ccccc2)N2CCN(c3ccc(NC(=O)C(CC)CC)cc3F)CC2)n1 (stereo not given)
pKb [4]: 7.45

CCN(CC)C(=O)C(c1ccccc1)N1CCN(c2ccc(NC(=O)c3ccccc3-c3cccnc3)cc2F)CC1 (stereo not given)
bioavailability [9]: 100% | Selectivity ratio (Homo sapiens [10]): > 100 | pKb [4]: 8.04 | Cmax [11]: 4.35 µM | Selectivity ratio (Homo sapiens [12]): > 100 | half-life [13]: 49.8 min | Selectivity ratio (Homo sapiens [14]): > 100 | bioavailability [15]: 6%

CCN(CC)C(=O)C(c1ccccc1)N1CCN(c2ccc(-c3c(C)noc3C)cc2F)CC1 (stereo not given)
IC50 [2]: 10000 nM

CCC(CC)C(=O)Nc1ccc(N2CCN(C(c3ccccc3)c3ncccn3)CC2)c(F)c1 (stereo not given)
IC50 [2]: 33 nM

CCN(CC)C(=O)C(c1ccccc1)N1CCN(c2ccc(NC(=O)c3c(C)cnn3CC)cc2F)CC1 (stereo not given)
IC50 [2]: 35 nM

CCN(CC)C(=O)C(c1ccccc1)N1CCN(c2ccc(-c3cccnc3)cc2F)CC1 (stereo not given)
IC50 [2]: 740 nM
